# Measured values from US5484778A, “Phthalocyanine photosensitizers for photodynamic therapy and methods for their use” (priority 1993, dated 1996).
# Legend:
# [1] = system: Chinese hamster V79-379 cells; assay: Growth delay of V79 cultures after red light (Table 1); type: cell-based
# Protocol: Chinese hamster V79-379 lung fibroblasts were grown in monolayer culture in McCoy's 5A medium (Gibco Laboratories, Grand Island, N.Y.) augmented with 10% calf serum and buffered with 20 mM HEPES (pH 7.4).
# The cells were treated with 1 μM AlPcCl (from Eastman Kodak, Rochester, N.Y.) or with phthalocyanine compositions I-VI (0.5-1.0 μM final concentration in the medium) for 18 hours by adding the appropriate volume of a 1.0 mM stock solution in dimethylformamide (DMF) to the culture medium. The growth medium was replaced with 4 ml Hank's balanced salt solution (HBSS), and the cells were irradiated. The light source was a 500 W tungsten-halogen lamp located approximately 29 inches below the surface of a glass exposure tray. The visible light administered to the cells was filtered to allow passage of only that portion of the visible spectrum above 600 nm (Lee Primary red filter No. 106, Vincent Lighting, Cleveland, Ohio). The fluence rate was approximately 0.074 kJ/m^2 /s at the level of the cell monolayer.
# At the time of light exposure, there were approximately 1.5×10^5 cells per 25 cm^2 flask. Following irradiation, the HBSS was replaced by 10 ml of fresh complete growth medium, and the cultures were returned to the 37° C. incubator. At various times before and after irradiation, duplicate cultures were trypsinized and counted. Controls included untreated cells and cells treated with light alone or drug alone. In addition, in each experiment, the drug to be tested was compared to a standard treatment, i.e. 1 μM AlPcCl for 18 hours followed by 12 kJ/m^2 light.
# The inhibition of V79 culture growth was measured during a three day period following red light irradiation (12 kJ/m^2) of phthalocyanine-pretreated cells. With each of the active compounds, as well as with AlPcCl, there was an initial decrease in cell density, as dead cells became detached from the monolayer. Thereafter, the cell number per flask increased, as living cells grew and divided. The time for the cell density to recover to the level at the time of light exposure was considered the growth delay. […] The ratio of the growth delay for the test photosensitizer and the growth delay for AlPcCl measured in the same experiment is recorded in Table 1.
# [2] = system: V79 cells; assay: Clonogenicity, killing of V79 cells using photodynamic therapy (Table 3); type: cell-based, Chinese hamster
# Procedure, shortened: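 V79 Chinese hamster lung fibroblasts were loaded with 0.5 or 1.0 μM phthalocyanine, then about 18 h later irradiated with increasing doses of 675 nm broad-band red light (tungsten-halogen lamp, 600 nm high-pass filter). Recorded value is the light dose killing 90% of cells, or, failing that, the maximum kill (% survival) and its dose.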
# [3] = system: RIF-1 tumors; assay: PDT of RIF-1 implanted tumors (Table 7); type: in vivo, C3H/HeN mice; details: for effect on tumor volume / growth (in words): 1 mg/kg
# Procedure, shortened: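 C3H/HeN mice each carried one RIF-1 fibrosarcoma on the back and received 1 mg/kg phthalocyanine as a corn-oil suspension. Volume was measured daily by calipers from a 50±10 mm^3 start and calculated with the hemiellipsoid model.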
# [4] = system: RIF-1 tumors; assay: PDT of RIF-1 implanted tumors with PcIV and multiple exposures to light (Table 8); type: in vivo, C3H/HeN mice; details: for % of Mice Surviving: 1 mg/kg
# Protocol: To overcome the regrowth, RIF-1 tumors were implanted in C3H/HeN mice, and the mice were treated with PcIV followed by multiple exposures to light. For multiple exposures to light to be successful, the tumor tissue must retain sufficient levels of the photosensitizer over the exposure period.
# Thereafter, the tumors were irradiated with an argon ion pumped dye laser tuned at 675 nm for the total light dose of 135 J/cm^2 (75 mW/cm^2).
# [5] = system: human squamous cell carcinoma; assay: PDT of human squamous cell carcinoma in athymic nude mice (Table 9); type: in vivo, Harlen-Sprague Dawley athymic nude mice; details: 1.0 mg/kg; for % Tumor Response: 24 hours post illumination; for % Tumor Cure: 7 days post treatment
# Protocol: A single cell suspension of human squamous cell carcinoma was injected subcutaneously into the back of Harlen-Sprague Dawley athymic nude mice. […]
# [6] = system: RIF-1 tumors; assay: Histology and DNA fragmentation in PDT-treated tumors; type: in vivo, C3H/HeN mice
# [7] = Retention in tumor tissue (pharmacokinetics); details: in vivo
# [8] = system: V79 cells; assay: Uptake of additional phthalocyanines into V79 cells (Table 2); details: for Uptake into V79 cells: 18 hours
# Protocol: V79 cells Chinese hamster lung fibroblasts were cultured using the cell culture methods described above. […] When the filters were dry, the phthalocyanines were extracted into ethanol and the absorption determined at the peak wavelength, usually 668 nm.
structure (smiles),measurement,setting,value
"CN(C)CCC[Si](C)(C)O[Si]1(O)n2c3c4ccccc4c2N=C2N=C(N=c4c5ccccc5c(n41)=NC1=NC(=N3)c3ccccc31)c1ccccc12 (centres unmarked) [Compound IV, HOSiPcOsi(CH3)2)(CH2)3 N(CH3)2]","Growth Delay, efficiency relative to 1 μM AlPcCl","[1]; 0.5 μM, 18 h, 12 kJ/m^2 red light",> 3
same,inhibition of V79 culture growth (in words),"[1]; red light 12 kJ/m^2, three day period",substantial inhibition
same,LD 90,"[2]; 0.5 μM, 18 h, light dose killing 90% of cells",4 kJ/m^2
same,"photosensitizing activity, killing V79 cells (in words)",[2]; discussion of Table 3,most active at killing V79 cells
same,Doubling Time of Initial Tumor Volume after PDT,"[3]; 1 mg/kg in corn oil, 675 nm, 135 J/cm^2",16 days
same,effect on tumor volume / growth (in words),[3]; listed as Pc IV,significantly impair the growth of the tumors
same,effect on tumor volume / growth (in words),[3]; listed as PcIV,particularly effective in reducing tumor volume
same,tumor regrowth,"[3]; after PDT, from the tumor margins",regrowth of tumors from the tumor margins occurred
same,% of Mice Surviving,[4]; 360 h,100%
same,% of Mice Surviving,[4]; 2880 h,0%
same,% of Mice Surviving,"[4]; DPPC liposomes, 30 days, exposure day 2",100%
same,% of Mice Surviving,"[4]; corn oil, 15 days, exposure day 2",100%
same,% of Mice Surviving,"[4]; corn oil, 15 days, exposure days 2-6",100%
same,tumor regrowth,"[4]; DPPC liposomes, 30 days after PDT, irradiated only one or two times",Tumor regrowth occurred 30 days after photodynamic therapy
same,tumor regrowth,"[4]; DPPC liposomes, 120 days after PDT, three to five exposures",No tumor regrowth occurred even at 120 days
same,tumor regrowth,"[4]; DPPC liposomes, 300 days after light treatment",no evidence of tumor regrowth
same,tumor cure,"[4]; DPPC liposomes, irradiated three, four or five times at 24 hour interval",complete tumor cure was evident
same,tumor regrowth,"[4]; corn oil, 15 days after PDT, all multiple exposure protocols",regrowth of tumors was evident 15 days after photodynamic therapy in all the multiple exposure protocols
same,% Tumor Response,"[5]; 35 J/cm^2 675 nm, 15 min",40%
same,% Tumor Cure,"[5]; 35 J/cm^2 675 nm, 15 min",0%
same,% Tumor Response,"[5]; 75 J/cm^2 675 nm, 15 min",80%
same,% Tumor Cure,"[5]; 75 J/cm^2 675 nm, 15 min",60%
same,% Tumor Response,"[5]; 135 J/cm^2 675 nm, 15 min",100%
same,% Tumor Cure,"[5]; 135 J/cm^2 675 nm, 15 min",100%
same,% Tumor Response,[5]; no light,0%
same,% Tumor Cure,[5]; no light,0%
same,apoptotic bodies in the tumor,[6]; histological examination,presence of apoptotic bodies in the tumor
same,"DNA fragment sizes, multiples of","[6]; mouse, in vivo",180-200 base pairs
same,retention in tumor tissue after administration,[7],≥ 7 days
same,uptake by V79 cells (in words),[8],taken up particulary well
same,Uptake into V79 cells,[8]; 1 μM,0.7 ± 0.2 n Moles/10^6 cells
same,Uptake into V79 cells,[8]; 2 μM,3.1 ± 0.3 n Moles/10^6 cells
same,Uptake into V79 cells,[8]; 4 μM,4.6 ± 2.9 n Moles/10^6 cells
same,"Uptake into V79 cells, composite value",[8]; average of all data,1.1 n Moles/10^6 cells/μM
same,Uptake (from Table 2),[8]; repeated in Table 3,1.1 n Moles/10^6 cells/μM
